Measurements as given in paper PMC7273348, “Unraveling a Tangled Skein: Evolutionary Analysis of the Bacterial Gibberellin Biosynthetic Operon” (mSphere, 2020).

Biological target: T1, ReIDS2 (ReGGPS2) (Rhizobium etli, UniProt Q8KLD2)
T1 construct: gene RHE_PD00244; full-length ORF in pET101/D-TOPO, C-terminal 6xHis tag, E. coli BL21 Star
T1 sequence (Q8KLD2 1-309): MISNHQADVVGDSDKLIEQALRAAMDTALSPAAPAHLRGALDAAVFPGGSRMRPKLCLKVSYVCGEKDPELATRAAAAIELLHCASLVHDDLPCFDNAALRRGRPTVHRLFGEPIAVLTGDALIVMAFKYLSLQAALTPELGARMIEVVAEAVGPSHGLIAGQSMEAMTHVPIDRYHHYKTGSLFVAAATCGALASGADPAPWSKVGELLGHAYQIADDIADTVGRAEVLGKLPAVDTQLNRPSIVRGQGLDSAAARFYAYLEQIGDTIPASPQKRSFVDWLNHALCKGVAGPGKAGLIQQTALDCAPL
Experiment: LC-MS/MS detection of GGPP product
Format: biochemical
Settings: 50 uM IPP + 50 uM DMAPP; MOPSO pH 7.2, 10 mM MgCl2; 30 C, 2 h; main product GGPP

CC(C)=CCOP(=O)(O)OP(=O)(O)O [DMAPP]
LC-MS/MS detection of GGPP product: produced GGPP as its major product from the universal isoprenoid precursors IPP and DMAPP
